# Measurements published in DBAASP.
# Assays:
# Assay in all cases: ≥ marks a high value that may be exact or a test limit, other limits are often not marked, values filed in µg/mL are converted to µM
# [1] = system: Candida albicans ATCC 10231
# [2] = system: Staphylococcus aureus ATCC 25923
# [3] = system: Bacillus subtilis ATCC 6633
# [4] = system: Escherichia coli ATCC 25922
# [5] = system: Pseudomonas aeruginosa ATCC 27853
# [6] = system: Staphylococcus aureus ATCC 29213
# [7] = system: Candida albicans ATCC 90028
# [8] = system: Klebsiella pneumoniae ATCC 700603
# [9] = system: Pseudomonas aeruginosa ATCC 9027
# Acinetobacter baumannii = system: Acinetobacter baumannii
# [10] = system: Staphylococcus aureus ATCC 6538
# [11] = system: Enterococcus faecalis ATCC 29212
# Staphylococcus aureus = system: Staphylococcus aureus
# Candida albicans = system: Candida albicans
# Escherichia coli = system: Escherichia coli
# [12] = system: Salmonella typhimurium KCTC 1926
MIC [4] [µM],MIC [5] [µM],MIC [6] [µM],MIC [7] [µM],Structure (SMILES),MIC [9] [µM],also measured
> 76.6,–,–,–,C[C@H](NC(=O)[C@H](Cc1c[nH]c2ccccc12)NC(=O)[C@H](CCCCN)NC(=O)[C@H](Cc1ccccc1)NC(=O)[C@H](CCCN=C(N)N)NC(=O)[C@H](Cc1c[nH]c2ccccc12)NC(=O)[C@@H](N)CCCN=C(N)N)C(=O)N[C@@H](CCCCN)C(=O)N[C@@H](CCCCN)C(=O)O [RWRFKWAKK],–,MIC [1]: > 76.6 µM; MIC [2]: > 76.6 µM; MIC [3]: ≥ 76.6 µM
5,10,10,20,CC[C@H](C)[C@H](NC(=O)[C@H](CCCCN)NC(=O)[C@H](CCC(N)=O)NC(=O)[C@@H](NC(=O)[C@@H](NC(=O)[C@H](CCCN=C(N)N)NC(=O)[C@@H](N)CCCCN)[C@@H](C)CC)C(C)C)C(=O)N[C@@H](CCCCN)C(=O)N[C@@H](CC(=O)O)C(=O)N[C@@H](Cc1ccccc1)C(=O)N[C@@H](CC(C)C)C(=O)N[C@@H](CCCN=C(N)N)C(=O)O [KRIVQKIKDFLR],–,–
5,10,5,10,CC[C@H](C)[C@H](NC(=O)[C@H](CCCN=C(N)N)NC(=O)[C@H](CCC(N)=O)NC(=O)[C@@H](NC(=O)[C@@H](NC(=O)[C@H](CCCCN)NC(=O)[C@@H](N)CCCCN)[C@@H](C)CC)C(C)C)C(=O)N[C@@H](CCCCN)C(=O)N[C@@H](CC(=O)O)C(=O)N[C@@H](Cc1ccccc1)C(=O)N[C@@H](CC(C)C)C(=O)N[C@@H](CCCN=C(N)N)C(=O)O [KKIVQRIKDFLR],–,–
64,–,–,–,CC[C@H](C)[C@H](NC(=O)[C@H](CC(C)C)NC(=O)[C@H](CCCCN)NC(=O)[C@H](CCCN=C(N)N)NC(=O)[C@H](CC(N)=O)NC(=O)[C@H](CC(C)C)NC(=O)[C@H](CCCCN)NC(=O)[C@H](Cc1c[nH]c2ccccc12)NC(=O)[C@@H](NC(=O)[C@@H](NC(=O)[C@H](CO)NC(=O)[C@H](Cc1ccccc1)NC(=O)[C@@H](N)CC(C)C)[C@@H](C)CC)[C@@H](C)CC)C(=O)N[C@@H](CCCCN)C(=O)N[C@@H](C)C(=O)O [LFSIIWKLNRKLIKA],> 64,MIC [2]: > 64 µM; MIC [8]: > 64 µM; MIC (Acinetobacter baumannii): ≥ 64 µM
1.25,1.25,2.5,2.5,CC[C@H](C)[C@H](NC(=O)[C@H](CCCN=C(N)N)NC(=O)[C@H](C)NC(=O)[C@@H](NC(=O)[C@@H](NC(=O)[C@H](CCCN=C(N)N)NC(=O)[C@@H](N)CCCCN)[C@@H](C)CC)C(C)C)C(=O)N[C@@H](CCCCN)C(=O)N[C@@H](C)C(=O)N[C@@H](Cc1ccccc1)C(=O)N[C@@H](CC(C)C)C(=O)N[C@@H](CCCN=C(N)N)C(=O)O [KRIVARIKAFLR],–,–
–,–,–,–,CC(C)C[C@H](NC(=O)[C@H](CC(C)C)NC(=O)[C@H](CCCCN)NC(=O)[C@H](CCCCN)NC(=O)[C@H](C)NC(=O)[C@H](CC(C)C)NC(=O)[C@H](CCCCN)NC(=O)[C@H](C)NC(=O)[C@@H](N)Cc1ccccc1)C(N)=O [FAKLAKKLL],97,MIC [10]: 194 µM
–,–,–,–,CC(C)C[C@H](NC(=O)[C@H](CCCCN)NC(=O)[C@H](CC(C)C)NC(=O)[C@H](CCCCN)NC(=O)[C@H](C)NC(=O)[C@H](CC(C)C)NC(=O)[C@H](CCCCN)NC(=O)[C@H](C)NC(=O)[C@H](CC(C)C)NC(=O)[C@H](CC(C)C)NC(=O)[C@H](CCCCN)NC(=O)[C@H](C)NC(=O)[C@@H](N)Cc1ccccc1)C(N)=O [FAKLLAKLAKLKL],34.3,MIC [10]: 3.43 µM
–,–,–,–,CC(C)C[C@H](NC(=O)[C@H](C)NC(=O)[C@H](CCCCN)NC(=O)[C@H](CC(C)C)NC(=O)[C@H](C)NC(=O)[C@H](CCCCN)NC(=O)[C@H](CC(C)C)NC(=O)[C@H](CC(C)C)NC(=O)[C@H](C)NC(=O)[C@H](CCCCN)NC(=O)[C@H](CC(C)C)NC(=O)[C@H](C)NC(=O)[C@H](CCCCN)NC(=O)[C@H](C)NC(=O)[C@@H](N)Cc1ccccc1)C(N)=O [FAKALKALLKALKAL],> 125,MIC [10]: 3.13 µM
40,40,40,≥ 40,CC[C@H](C)[C@H](NC(=O)[C@H](CCCN=C(N)N)NC(=O)[C@H](CCC(N)=O)NC(=O)[C@@H](NC(=O)[C@@H](NC(=O)[C@H](CCCN=C(N)N)NC(=O)[C@@H](N)CCCCN)[C@@H](C)CC)C(C)C)C(=O)N[C@@H](CCCCN)C(=O)N[C@@H](CC(=O)O)C(=O)N[C@@H](Cc1ccccc1)C(=O)N[C@@H](CC(C)C)C(=O)N[C@@H](C)C(=O)O [KRIVQRIKDFLA],–,–
2.05,2.74,5.47,–,CC(C)C[C@H](NC(=O)[C@H](CC(C)C)NC(=O)[C@H](CCCN=C(N)N)NC(=O)[C@H](CCCCN)NC(=O)[C@H](CCCN=C(N)N)NC(=O)[C@H](CC(C)C)NC(=O)[C@H](CCCCN)NC(=O)[C@H](CCCN=C(N)N)NC(=O)[C@H](CC(C)C)NC(=O)[C@H](Cc1cnc[nH]1)NC(=O)[C@H](CO)NC(=O)[C@H](C)NC(=O)[C@H](CC(C)C)NC(=O)[C@H](CCCN=C(N)N)NC(=O)[C@@H](NC(=O)[C@H](CC(C)C)NC(=O)[C@H](CCCN=C(N)N)NC(=O)[C@H](CCCCN)NC(=O)[C@H](CCCN=C(N)N)NC(=O)[C@H](CC(C)C)NC(=O)[C@H](CCCCN)NC(=O)[C@H](CCCN=C(N)N)NC(=O)[C@@H](N)CC(C)C)C(C)C)C(=O)O [LRKLRKRLVRLASHLRKLRKRLL],–,MIC (Acinetobacter baumannii): 2.05 µM; MIC [11]: > 10.9 µM
–,–,–,–,CC[C@H](C)[C@H](NC(=O)[C@H](CCCCN)NC(=O)[C@H](CS)NC(=O)[C@H](C)NC(=O)[C@@H](NC(=O)[C@H](Cc1ccccc1)NC(=O)[C@H](CCCCN)NC(=O)[C@H](CC(C)C)NC(=O)[C@H](CCCCN)NC(=O)[C@@H](NC(=O)[C@H](CCCCN)NC(=O)[C@H](CCCCN)NC(=O)[C@H](CC(C)C)NC(=O)[C@H](CC(N)=O)NC(=O)[C@H](CCCCN)NC(=O)[C@H](CC(C)C)NC(=O)[C@@H](NC(=O)[C@H](CO)NC(=O)[C@H](CC(C)C)NC(=O)[C@H](CCSC)NC(=O)[C@@H](N)CO)C(C)C)C(C)C)C(C)C)C(=O)N[C@@H](CC(N)=O)C(=O)N[C@@H](CCCCN)C(=O)N[C@@H](CCC(N)=O)C(=O)N[C@@H](CS)C(=O)O [SMLSVLKNLKKVKLKFVACKINKQC],–,MIC (Staphylococcus aureus): > 200 µM; MIC (Candida albicans): > 200 µM; MIC (Escherichia coli): 200 µM
–,–,–,–,CC[C@H](C)[C@H](NC(=O)[C@@H](NC(=O)[C@@H](NC(=O)[C@H](CCCN=C(N)N)NC(=O)[C@@H](NC(=O)[C@@H](NC(=O)[C@H](CC(C)C)NC(=O)[C@@H]1CCCN1C(=O)[C@H](Cc1c[nH]c2ccccc12)NC(=O)[C@@H](NC(=O)[C@H](CCCN=C(N)N)NC(=O)[C@@H](N)CCCCN)C(C)C)C(C)C)[C@@H](C)CC)[C@@H](C)O)C(C)C)C(=O)N[C@@H](C)C(=O)NCC(=O)N[C@@H](Cc1ccc(O)cc1)C(=O)N[C@@H](CC(N)=O)C(=O)N[C@@H](CC(C)C)C(=O)N[C@@H](Cc1ccc(O)cc1)C(=O)N[C@@H](CCCN=C(N)N)C(=O)O [KRVWPLVIRTVIAGYNLYR],–,MIC [12]: ≥ 32 µM
–,–,–,–,CC(=O)N[C@@H](CCCCN)C(=O)N[C@@H](Cc1ccc(O)cc1)C(=O)N[C@H](C(=O)NCC(=O)N[C@@H](CCCCN)C(=O)N[C@@H](CS)C(=O)N[C@@H](CCCCN)C(=O)N[C@H](C(=O)N[C@@H](CCCCN)C(=O)N[C@@H](CCCCN)C(=O)N[C@@H](CC(N)=O)C(=O)N[C@@H](CCCCN)C(=O)N[C@@H](CS)C(=O)N[C@@H](CCCCN)C(N)=O)[C@@H](C)O)[C@@H](C)O [KYTGKCKTKKNKCK],–,MIC (Candida albicans): 1.3 µM
